# PubChem BioAssay (NCI)
#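 These data come from cells grown in 96-well plates and exposed to compound for 48 hours at five concentrations. TGI: concentration producing complete growth inhibition.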
# Experiments:
# Test in all cases: NCI tumour cell line growth inhibition, 48 h
# XF 498 CNS = tested on: XF 498 CNS
# OVCAR-3 ovarian = tested on: OVCAR-3 ovarian
# MALME-3M melanoma = tested on: MALME-3M melanoma
# UACC-62 melanoma = tested on: UACC-62 melanoma
# OVCAR-8 ovarian = tested on: OVCAR-8 ovarian
# CCRF-CEM leukemia = tested on: CCRF-CEM leukemia
# HCC-2998 colon = tested on: HCC-2998 colon
# CAKI-1 renal = tested on: CAKI-1 renal
# IGROV1 ovarian = tested on: IGROV1 ovarian
# LXFL 529 NSCLC = tested on: LXFL 529 NSCLC
# RXF 393 renal = tested on: RXF 393 renal
# TK-10 renal = tested on: TK-10 renal
# SNB-78 CNS = tested on: SNB-78 CNS
# SK-MEL-28 melanoma = tested on: SK-MEL-28 melanoma
# UO-31 renal = tested on: UO-31 renal
# SN12C renal = tested on: SN12C renal
# NCI-H23 lung = tested on: NCI-H23 lung
# K-562 leukemia = tested on: K-562 leukemia
# SF-295 CNS = tested on: SF-295 CNS
# MOLT-4 leukemia = tested on: MOLT-4 leukemia
# COLO 205 colon = tested on: COLO 205 colon
# SK-OV-3 ovarian = tested on: SK-OV-3 ovarian
# SNB-19 CNS = tested on: SNB-19 CNS
# KM20L2 colon = tested on: KM20L2 colon
# NCI-H522 lung = tested on: NCI-H522 lung
# M19-MEL melanoma = tested on: M19-MEL melanoma
# HCT-15 colon = tested on: HCT-15 colon
# HOP-92 NSCLC = tested on: HOP-92 NSCLC
# KM12 colon = tested on: KM12 colon
# SK-MEL-2 melanoma = tested on: SK-MEL-2 melanoma
# SR leukemia = tested on: SR leukemia
# OVCAR-4 ovarian = tested on: OVCAR-4 ovarian
# OVCAR-5 ovarian = tested on: OVCAR-5 ovarian
# SW-620 colon = tested on: SW-620 colon
# M14 melanoma = tested on: M14 melanoma
# SK-MEL-5 melanoma = tested on: SK-MEL-5 melanoma
# HT29 colon = tested on: HT29 colon
# DLD-1 colon = tested on: DLD-1 colon
# U251 CNS = tested on: U251 CNS
# DMS 114 small cell lung = tested on: DMS 114 small cell lung
# HOP-62 NSCLC = tested on: HOP-62 NSCLC
# DMS 273 small cell lung = tested on: DMS 273 small cell lung
# UACC-257 melanoma = tested on: UACC-257 melanoma
# HCT-116 colon = tested on: HCT-116 colon
# A549 NSCLC = tested on: A549 NSCLC
# 786-0 renal = tested on: 786-0 renal
# SF-539 CNS = tested on: SF-539 CNS
# SF-268 CNS = tested on: SF-268 CNS
# RPMI-8226 leukemia = tested on: RPMI-8226 leukemia
# HL-60(TB) leukemia = tested on: HL-60(TB) leukemia
# SNB-75 CNS = tested on: SNB-75 CNS
# NCI-H460 lung = tested on: NCI-H460 lung
# NCI-H226 lung = tested on: NCI-H226 lung
# ACHN renal = tested on: ACHN renal
smiles,measurement,setting,value
CC1=N/C(=C\c2ccc(C)cc2)C(=O)O1,TGI,XF 498 CNS,> 100 µM
same,TGI,OVCAR-3 ovarian,> 100 µM
same,TGI,MALME-3M melanoma,> 100 µM
same,TGI,UACC-62 melanoma,> 100 µM
same,TGI,OVCAR-8 ovarian,> 100 µM
same,TGI,CCRF-CEM leukemia,> 100 µM
same,TGI,HCC-2998 colon,> 100 µM
same,TGI,CAKI-1 renal,> 100 µM
same,TGI,IGROV1 ovarian,> 100 µM
same,TGI,LXFL 529 NSCLC,> 100 µM
same,TGI,RXF 393 renal,> 100 µM
same,TGI,TK-10 renal,> 100 µM
same,TGI,SNB-78 CNS,> 100 µM
same,TGI,SK-MEL-28 melanoma,> 100 µM
same,TGI,UO-31 renal,> 100 µM
same,TGI,SN12C renal,> 100 µM
same,TGI,NCI-H23 lung,> 100 µM
same,TGI,K-562 leukemia,> 100 µM
same,TGI,SF-295 CNS,> 100 µM
same,TGI,MOLT-4 leukemia,> 100 µM
same,TGI,COLO 205 colon,> 100 µM
same,TGI,SK-OV-3 ovarian,> 100 µM
same,TGI,SNB-19 CNS,> 100 µM
same,TGI,KM20L2 colon,> 100 µM
same,TGI,NCI-H522 lung,> 100 µM
same,TGI,M19-MEL melanoma,> 100 µM
same,TGI,HCT-15 colon,> 100 µM
same,TGI,HOP-92 NSCLC,> 100 µM
same,TGI,KM12 colon,> 100 µM
same,TGI,SK-MEL-2 melanoma,> 100 µM
same,TGI,SR leukemia,> 100 µM
same,TGI,OVCAR-4 ovarian,> 100 µM
same,TGI,OVCAR-5 ovarian,> 100 µM
same,TGI,SW-620 colon,> 100 µM
same,TGI,M14 melanoma,> 100 µM
same,TGI,SK-MEL-5 melanoma,> 100 µM
same,TGI,HT29 colon,> 100 µM
same,TGI,DLD-1 colon,> 100 µM
same,TGI,U251 CNS,> 100 µM
Cc1cc(C=O)c2c(=O)c3c(O)ccc(/C=C/C(C)C)c3oc2c1,TGI,DMS 114 small cell lung,> 100 µM
same,TGI,HOP-62 NSCLC,> 100 µM
same,TGI,DMS 273 small cell lung,> 100 µM
same,TGI,OVCAR-3 ovarian,> 100 µM
same,TGI,MALME-3M melanoma,> 100 µM
same,TGI,UACC-62 melanoma,> 100 µM
same,TGI,OVCAR-8 ovarian,> 100 µM
same,TGI,HCC-2998 colon,> 100 µM
same,TGI,CAKI-1 renal,> 100 µM
same,TGI,IGROV1 ovarian,> 100 µM
same,TGI,LXFL 529 NSCLC,> 100 µM
same,TGI,TK-10 renal,> 100 µM
same,TGI,UACC-257 melanoma,> 100 µM
same,TGI,SK-MEL-28 melanoma,> 100 µM
same,TGI,UO-31 renal,> 100 µM
same,TGI,NCI-H23 lung,> 100 µM
same,TGI,K-562 leukemia,> 100 µM
same,TGI,HCT-116 colon,48.1 µM
same,TGI,A549 NSCLC,> 100 µM
same,TGI,SF-295 CNS,> 100 µM
same,TGI,MOLT-4 leukemia,86.5 µM
same,TGI,COLO 205 colon,> 100 µM
same,TGI,SNB-19 CNS,> 100 µM
same,TGI,786-0 renal,> 100 µM
same,TGI,KM20L2 colon,> 100 µM
same,TGI,NCI-H522 lung,74 µM
same,TGI,M19-MEL melanoma,> 100 µM
same,TGI,HCT-15 colon,99.6 µM
same,TGI,HOP-92 NSCLC,> 100 µM
same,TGI,SF-539 CNS,> 100 µM
same,TGI,SF-268 CNS,> 100 µM
same,TGI,RPMI-8226 leukemia,58.8 µM
same,TGI,HL-60(TB) leukemia,59.4 µM
same,TGI,KM12 colon,> 100 µM
same,TGI,SK-MEL-2 melanoma,> 100 µM
same,TGI,SR leukemia,78.2 µM
same,TGI,SNB-75 CNS,> 100 µM
same,TGI,OVCAR-4 ovarian,> 100 µM
same,TGI,OVCAR-5 ovarian,> 100 µM
same,TGI,NCI-H460 lung,> 100 µM
same,TGI,SW-620 colon,> 100 µM
same,TGI,NCI-H226 lung,> 100 µM
same,TGI,M14 melanoma,> 100 µM
same,TGI,ACHN renal,> 100 µM
same,TGI,SK-MEL-5 melanoma,> 100 µM
same,TGI,HT29 colon,> 100 µM
same,TGI,DLD-1 colon,> 100 µM
same,TGI,U251 CNS,> 100 µM
